Assay results from ChEMBL document CHEMBL5034015, “Structure-Based Optimization of 3-Phenyl-N-(2-(3-phenylureido)ethyl)thiophene-2-sulfonamide Derivatives as Selective Mcl-1 Inhibitors” (J Med Chem, 2021).
Active and inactive are the calls of the source.

Tests used:
[1] = biological target: T1, Induced myeloid leukemia cell differentiation protein Mcl-1 (Homo sapiens, UniProt Q07820); assay: Binding affinity to full length human MCL1 expressed in Escherichia coli BL21 (DE3) assessed as inhibition constant preincubated for 30 mins followed by 5-FAM-QEDIIIINIARHLAQVGDSMD-RSIPPG tracer addition and measured after 20 mins by fluorescence polarization assay
T1 sequence (Q07820 whole entry): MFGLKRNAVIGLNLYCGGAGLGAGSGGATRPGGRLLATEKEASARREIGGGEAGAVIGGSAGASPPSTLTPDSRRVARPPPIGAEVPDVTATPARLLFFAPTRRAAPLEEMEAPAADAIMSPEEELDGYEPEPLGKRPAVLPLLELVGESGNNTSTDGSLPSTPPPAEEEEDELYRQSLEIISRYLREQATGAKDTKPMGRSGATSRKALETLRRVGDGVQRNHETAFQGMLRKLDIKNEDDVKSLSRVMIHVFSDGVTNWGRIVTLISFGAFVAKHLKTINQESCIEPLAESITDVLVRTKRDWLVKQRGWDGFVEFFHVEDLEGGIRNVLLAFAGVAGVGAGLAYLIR

[2] = tested on: HEK-293T; assay: Cytotoxicity against HEK293T cells assessed as reduction in cell viability incubated for 48 hrs by CCK8 assay; conditions: Homo sapiens
[3] = tested on: HeLa; assay: cells; conditions: Homo sapiens, 48 h
Description: Cytotoxicity against human HeLa cells assessed as inhibition of cell growth incubated for 48 hrs by CCK8 assay

[4] = biological target: T2, Apoptosis regulator Bcl-2 (Homo sapiens, UniProt P10415); assay: Binding affinity to full length human Bcl-2 expressed in Escherichia coli BL21 (DE3) at up to 100 uM preincubated for 30 mins followed by 5-FAM-QEDIIIINIARHLAQVGDSMD-RSIPPG tracer addition and measured after 20 mins by fluorescence polarization assay; conditions: dose microM <=100, time 50.0 min
T2 sequence (P10415 whole entry): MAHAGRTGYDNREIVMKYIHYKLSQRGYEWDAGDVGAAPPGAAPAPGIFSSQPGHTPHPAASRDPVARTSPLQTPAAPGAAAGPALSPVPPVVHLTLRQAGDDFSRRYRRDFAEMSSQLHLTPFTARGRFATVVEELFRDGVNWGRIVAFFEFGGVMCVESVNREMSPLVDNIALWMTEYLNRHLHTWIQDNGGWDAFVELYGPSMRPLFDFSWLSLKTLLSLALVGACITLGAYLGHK

[5] = biological target: T3, Bcl-2-like protein 1 (Homo sapiens, UniProt Q07817); assay: Binding affinity to full length human Bcl-xl expressed in Escherichia coli BL21 (DE3) at up to 100 uM preincubated for 30 mins followed by 5-FAM-QEDIIIINIARHLAQVGDSMD-RSIPPG tracer addition and measured after 20 mins by fluorescence polarization assay; conditions: dose microM <=100, time 50.0 min
T3 sequence (Q07817 whole entry): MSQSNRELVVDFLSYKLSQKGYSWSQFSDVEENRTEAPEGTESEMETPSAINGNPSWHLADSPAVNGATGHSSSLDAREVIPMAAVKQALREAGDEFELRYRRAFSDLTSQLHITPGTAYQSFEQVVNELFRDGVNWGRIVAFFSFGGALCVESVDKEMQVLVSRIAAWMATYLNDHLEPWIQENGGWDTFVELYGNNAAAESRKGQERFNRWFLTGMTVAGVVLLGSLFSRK

[6] = tested on: RS4-11; assay: cells; conditions: Homo sapiens, RS4-11, 48 h
Description: Cytotoxicity against human RS4-11 cells assessed as inhibition of cell growth incubated for 48 hrs by CCK8 assay

[7] = tested on: HL-60; assay: cells; conditions: Homo sapiens, HL-60, 48 h
Description: Cytotoxicity against human HL-60 cells assessed as inhibition of cell growth incubated for 48 hrs by CCK8 assay

[8] = biological target: T2, Apoptosis regulator Bcl-2; assay: Binding affinity to full length human Bcl-2 expressed in Escherichia coli BL21 (DE3) at 100 uM preincubated for 30 mins followed by 5-FAM-QEDIIIINIARHLAQVGDSMD-RSIPPG tracer addition and measured after 20 mins by fluorescence polarization assay relative to control; conditions: time 50.0 min
[9] = biological target: T3, Bcl-2-like protein 1; assay: Binding affinity to full length human Bcl-xl expressed in Escherichia coli BL21 (DE3) at 100 uM preincubated for 30 mins followed by 5-FAM-QEDIIIINIARHLAQVGDSMD-RSIPPG tracer addition and measured after 20 mins by fluorescence polarization assay relative to control; conditions: time 50.0 min
[10] = biological target: T1, Induced myeloid leukemia cell differentiation protein Mcl-1; assay: Binding affinity to full length human MCL1 expressed in Escherichia coli BL21 (DE3) at 100 uM preincubated for 30 mins followed by 5-FAM-QEDIIIINIARHLAQVGDSMD-RSIPPG tracer addition and measured after 20 mins by fluorescence polarization assay relative to control; conditions: time 50.0 min
[11] = biological target: T1, Induced myeloid leukemia cell differentiation protein Mcl-1; assay: Binding affinity to full length human MCL1 expressed in Escherichia coli BL21 (DE3) at up to 100 uM preincubated for 30 mins followed by 5-FAM-QEDIIIINIARHLAQVGDSMD-RSIPPG tracer addition and measured after 20 mins by fluorescence polarization assay; conditions: dose microM <=100, time 50.0 min

Row | SMILES | Ki [1] [µM] | IC50 [2] [µM] | IC50 [3] [µM] | Activity [4] | Activity [5] | IC50 [6] [µM] | IC50 [7] [µM] | inhibition [8] [%] | inhibition [9] [%] | inhibition [10] [%] | Activity [11]
1 | Cc1ccc(-c2ccsc2S(=O)(=O)NCCNC(=S)Nc2cc(C(F)(F)F)cc(C(F)(F)F)c2)c(Oc2ccc(O)c(O)c2)c1 | 0.73 | 8 | 8 | inactive | inactive | 4.8 | 3.2 | – | – | – | –
2 | COc1ccc(NC(=O)NCCNS(=O)(=O)c2ccc(-c3ccccc3Oc3ccc([N+](=O)[O-])cc3)s2)cc1 | 4.6 | > 20 | > 20 | inactive | inactive | > 50 | > 50 | – | – | – | –
3 | COc1ccc(Oc2ccc([N+](=O)[O-])cc2-c2ccsc2S(=O)(=O)N2CCN(C(=O)Nc3ccc([N+](=O)[O-])cc3)CC2)cc1OC | – | > 20 | > 50 | – | – | > 50 | > 50 | 19 | 44 | 37 | –
4 | COc1ccc(Oc2ccccc2-c2ccsc2S(=O)(=O)N2CCN(C(=S)Nc3ccc(Cl)cc3)CC2)cc1OC | – | > 20 | > 50 | – | – | > 50 | > 50 | 18 | 33 | 43 | –
5 | CC(C)c1ccc(Oc2ccc(O)c(O)c2)c(-c2ccsc2S(=O)(=O)NCCNC(=O)Nc2cc(Cl)cc(Cl)c2)c1 | 0.36 | > 10 | > 50 | inactive | inactive | 6.4 | 6.5 | – | – | – | –
6 | COc1ccc(Oc2ccccc2-c2ccsc2S(=O)(=O)N2CCN(C(=O)Nc3cccc([N+](=O)[O-])c3)CC2)cc1OC | – | > 20 | > 50 | – | – | > 50 | > 50 | 18 | 19 | 31 | –
7 | O=C(Nc1cccc([N+](=O)[O-])c1)N1CCN(S(=O)(=O)c2sccc2-c2ccccc2Oc2ccc(O)c(O)c2)CC1 | – | > 20 | > 20 | – | – | 9.8 | 4.5 | 30 | 34 | 74 | –
8 | O=S(=O)(c1sccc1-c1ccccc1Oc1ccc(O)c(O)c1)N1CCN(C(=S)Nc2cc(C(F)(F)F)cc(C(F)(F)F)c2)CC1 | – | > 20 | > 20 | – | – | 7.3 | 2.2 | 20 | 12 | 72 | –
9 | Cc1ccc(-c2ccsc2S(=O)(=O)NCCNC(=O)Nc2cccc([N+](=O)[O-])c2)c(Oc2ccc(O)c(O)c2)c1 | 13 | 6.8 | > 20 | inactive | inactive | 9.1 | 6 | – | – | – | –
10 | COc1ccc(NC(=O)NCCNS(=O)(=O)c2sccc2-c2ccc(C)cc2Oc2ccc(O)c(O)c2)cc1 | – | > 20 | > 20 | inactive | inactive | 8.2 | 6.1 | – | – | – | inactive
11 | COc1cccc(NC(=O)NCCNS(=O)(=O)c2ccc(-c3ccccc3Oc3ccc([N+](=O)[O-])c([N+](=O)[O-])c3)s2)c1 | – | 17.8 | > 20 | inactive | inactive | 1.3 | 6.7 | – | – | – | inactive
12 | O=S(=O)(NCCNC(=S)Nc1cccc(Cl)c1)c1ccc(-c2ccccc2OCc2cccc(O)c2)s1 | – | 17.4 | 10.7 | inactive | inactive | 5.8 | 1.8 | – | – | – | inactive
13 | COc1ccc(Oc2ccccc2-c2ccsc2S(=O)(=O)N2CCN(C(=O)Nc3ccc(F)cc3)CC2)cc1OC | – | > 50 | > 20 | – | – | 14.9 | > 20 | 15 | 33 | 28 | –
14 | COc1ccc(NC(=O)NCCNS(=O)(=O)c2ccc(-c3ccccc3Oc3ccc([N+](=O)[O-])c([N+](=O)[O-])c3)s2)cc1 | – | 18.5 | > 20 | inactive | inactive | 1.4 | 5.4 | – | – | – | inactive
